Laboratory results reported in the supplement of paper PMC4862054.

Experiments:
Conditions in all cases: incubation time: 72 h
[1] = test system: BT-474; assay: normalised response (% of control), CellTox Green; higher = less cell death (100 = DMSO, 0 = benzethonium chloride kill control)
Outline: (§1)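 Each entry is the normalised signal at a single concentration within a series. The series comprised 5 concentrations in 10-fold steps over a compound-specific 10,000-fold range, placed in 384-well plates into which breast cancer cell lines were seeded as 20 µl suspension and incubated 72 h. CellTox Green (485/520 nm) fluorescence and then CellTiter-Glo luminescence were read, with signals normalised per plate to 0.1 % DMSO (100) and a positive kill control (0).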

[2] = test system: BT-549; assay: as above
Outline: as §1

[3] = test system: CAL-120; assay: as above
Outline: as §1

[4] = test system: CAL-148; assay: as above
Outline: as §1

[5] = test system: CAL-51; assay: as above
Outline: as §1

[6] = test system: CAL-85-1; assay: as above
Outline: as §1

[7] = test system: DU-4475; assay: as above
Outline: as §1

[8] = test system: HCC1143; assay: as above
Outline: as §1

[9] = test system: HCC1599; assay: as above
Outline: as §1

[10] = test system: HCC1937; assay: as above
Outline: as §1

[11] = test system: HDQ-P1; assay: as above
Outline: as §1

[12] = test system: Hs578T; assay: as above
Outline: as §1

[13] = test system: MDA-MB-231; assay: as above
Outline: as §1

[14] = test system: MDA-MB-436; assay: as above
Outline: as §1

[15] = test system: MDA-MB-453; assay: as above
Outline: as §1

[16] = test system: MDA-MB-468; assay: as above
Outline: as §1

[17] = test system: MFM-223; assay: as above
Outline: as §1

[18] = test system: BT-474; assay: normalised response (% of control), CellTiter-Glo; higher = more viable cells (100 = DMSO, 0 = benzethonium chloride kill control)
Outline: as §1

[19] = test system: BT-549; assay: as above
Outline: as §1

[20] = test system: CAL-120; assay: as above
Outline: as §1

[21] = test system: CAL-148; assay: as above
Outline: as §1

[22] = test system: CAL-51; assay: as above
Outline: as §1

[23] = test system: CAL-85-1; assay: as above
Outline: as §1

[24] = test system: DU-4475; assay: as above
Outline: as §1

[25] = test system: HCC1143; assay: as above
Outline: as §1

[26] = test system: HCC1599; assay: as above
Outline: as §1

[27] = test system: HCC1937; assay: as above
Outline: as §1

[28] = test system: HDQ-P1; assay: as above
Outline: as §1

[29] = test system: Hs578T; assay: as above
Outline: as §1

[30] = test system: MCF-10A; assay: as above
Outline: as §1

[31] = test system: MDA-MB-231; assay: as above
Outline: as §1

[32] = test system: MDA-MB-436; assay: as above
Outline: as §1

[33] = test system: MDA-MB-453; assay: as above
Outline: as §1

[34] = test system: MDA-MB-468; assay: as above
Outline: as §1

[35] = test system: MFM-223; assay: as above
Outline: as §1

[36] = test system: SK-BR-3; assay: as above
Outline: as §1

[37] = test system: MCF-10A; assay: normalised response (% of control), CellTox Green; higher = less cell death (100 = DMSO, 0 = benzethonium chloride kill control)
Outline: as §1

SMILES	normalised response [1]	normalised response [2]	normalised response [3]	normalised response [4]	normalised response [5]	normalised response [6]	normalised response [7]	normalised response [8]	normalised response [9]	normalised response [10]	normalised response [11]	normalised response [12]	normalised response [13]	normalised response [14]	normalised response [15]	normalised response [16]	normalised response [17]	normalised response [18]	normalised response [19]	normalised response [20]	normalised response [21]	normalised response [22]	normalised response [23]	normalised response [24]	normalised response [25]	normalised response [26]	normalised response [27]	normalised response [28]	normalised response [29]	normalised response [30]	normalised response [31]	normalised response [32]	normalised response [33]	normalised response [34]	normalised response [35]	normalised response [36]	normalised response [37]
Nc1ncnc2c1c(COc1cccc(Cl)c1)nn2C1CCOCC1 (1000 nM)	98.3%	96.5%	103%	105%	118%	108%	108%	119%	74.4%	124%	114%	104%	115%	107%	110%	99.3%	103%	104%	88.6%	111%	102%	105%	93.4%	102%	104%	113%	103%	107%	97.1%	104%	104%	106%	103%	96.6%	104%	107%	
COc1ccc(-c2ccc3c(N4CCOC[C@@H]4C)nc(N4CCOC[C@@H]4C)nc3n2)cc1CO [AZD8055] (1000 nM)	86.1%	116%	96%	39.6%	80.1%	87.8%	83.3%	74.1%	94.2%	56.8%	103%	102%	87.4%	92.4%	104%	118%	93.6%	46.6%	21.5%	18%	13.9%	20.3%	25.3%	23.2%	24.2%	67.2%	45.7%	32.3%	29.4%	27.8%	36.5%	45.8%	31.3%	23.6%	27.6%	20.3%	91.7%
C[C@]12CC[C@H](O)CC1=CC[C@@H]1[C@@H]2CC[C@]2(C)C(c3cccnc3)=CC[C@@H]12 [Abiraterone] (500 nM)	103%	135%	99.1%	94.8%	101%	96%	101%	104%	110%	123%	108%	114%	127%	88.8%	104%	92%	104%	90.7%	99.1%	97.1%	105%	65.6%	104%	105%	98.8%	107%	98.7%	99.2%	106%	112%	105%	96%	99.3%	98%	101%	103%	102%
CC(C)(C#N)c1cc(Cn2cncn2)cc(C(C)(C)C#N)c1 [Anastrozole] (1000 nM)	99.8%	106%	101%	93.9%	113%	110%	100%	61.9%	102%	106%	111%	62.7%	104%	103%	96.5%	85.1%	101%	104%	99.2%	96.7%	93.3%	122%	103%	98.2%	101%	123%	94.5%	96.5%	103%	105%	106%	100%	96.9%	106%	105%	108%	105%
CC(C)c1c(C(=O)Nc2ccccc2)c(-c2ccccc2)c(-c2ccc(F)cc2)n1CC[C@@H](O)C[C@@H](O)CC(=O)O [Atorvastatin] (1000 nM)	99.9%	97.4%	98.2%	103%		110%	101%	114%	100%	88.3%	103%	97.4%	34%	96.6%	94.1%	87.3%	89.4%	66.1%	95.6%	90.5%	105%	90.2%	91.9%	99.9%	93.4%	95.6%	96.6%	74.8%	101%	84%	59.1%	92.6%	99.4%	93.2%	99.1%	102%	83.6%
O=C(O)CCCc1ccc(N(CCCl)CCCl)cc1 [Chlorambucil] (1000 nM)	98.2%	115%	98.5%	104%	113%	110%	102%	98.2%	96.9%	85.3%	103%	108%	103%	93.3%	100%	103%	95.5%	96.7%	111%	94.7%	95.5%	108%	103%	105%	100%	91.9%	95%	97.4%	105%	102%	99.8%	103%	102%	101%	103%	101%	
Cn1c(=O)n(-c2ccc(C(C)(C)C#N)cc2)c2c3cc(-c4cnc5ccccc5c4)ccc3ncc21 [Dactolisib] (100 nM)	104%	134%	89.3%	72.8%	104%	94.4%	94.5%	109%	103%	65%	109%	108%	108%	110%	98%	134%	99.3%	62.1%	23.8%	29.1%	30.4%	31.7%	39.9%	41%	45.5%	80.4%	57.3%	52.7%	35.2%	45.2%	50.4%	62%	38.8%	39%	39.1%	30%	108%
CNNCc1ccc(C(=O)NC(C)C)cc1 [Procarbazine] (1000 nM)	101%	107%	106%	104%	103%	95.4%	104%	123%	95%	105%	104%	101%	104%	98%	70.8%	84%		98.1%	98.7%	102%	104%	78.5%	102%	94.8%	104%	101%	105%	103%	109%	105%	107%	104%	100%	105%	101%	110%	107%
O=C1NC(=O)[C@@H](c2cn3c4c(cccc24)CCC3)[C@@H]1c1c[nH]c2ccccc12 [Tivantinib] (100 nM)	94.2%	106%	97.9%		103%	93.4%	98.7%	60.7%	85.6%	100%		75%	110%	91.5%	104%	116%	89.4%	106%	92.4%	103%	96.9%	115%	89.5%	96.5%	93.9%	127%	94.6%	105%	94.6%	97.7%	99.2%	98%	77.3%	96.1%	99%	92%	113%
